The target of one test is T1, human CB1 receptors (Homo sapiens, UniProt P21554).
T1 construct: host or cells: CHO
The test is described as follows: Competition binding, CHO-hCB1 membranes. The following applies: membranes from CHO cells stably expressing human CB1. Here is the method: The assay was performed as previously detailed. […] All binding reactions were conducted in triplicate, in a final volume of 1 mL, and, following mixing, were incubated for 20 min in a 37 °C water bath to achieve equilibrium. After incubation, reactions were terminated by rapid vacuum filtration and processed for radioactivity, as detailed in Section 4.5.1.
Curve-fitting and all statistical analyses were performed using GraphPad Prism® v8.0g (GraphPad Software, Inc.; San Diego, CA, USA). […] For CBR screening studies, a one-sample t-test was performed to determine differences from 100% (e.g., to quantify compounds producing displacement), followed by a one-way ANOVA and Tukey’s post hoc tests to compare displacement produced by all drugs. […] To compare specific CBR affinity (Ki) between ligands, non-linear regression analysis was employed to determine experimental IC50 values from competition receptor binding assays, which were then converted to Ki values using the Cheng–Prusoff equation [35]. […] For LDH release, ATP-dependent cell viability and JC-1 staining assays, drug effects were first analyzed by a one-sample t-test to determine differences from 0 or 100% (vehicle), followed by a one-way ANOVA and Dunnett’s post hoc test to compare all means. […]

A further test deals with NPrEC. The test is described as follows: LDH cytotoxicity, NPrEC cells. To be noted: NPrEC immortalized non-cancerous cell line. The format is cell-based.
A further test has as its system DU-145 cells. The test is described as follows: ATP-dependent cell viability, DU-145 cells. It is filed as cell-based, human. The following applies: 24 h. Here is the method:
Adenosine 5′-triphosphate (ATP) levels were quantified as a measure of DU-145 cell viability in response to cannabinoid treatement using an ATP-luciferase-based bioluminescence assay kit (CellTiter-Glo®, Sigma, MO, USA) and BioTek microplate reader (Winooski, VT, USA). DU-145 cells were seeded at a density of 8 × 10^3 cells/well in a 96-well plate and incubated for 24 h at 37 °C with 5% CO2. The next day, cells were treated with either vehicle or experimental drugs (10 or 50 μM) and incubated for another 24 h at 37 °C with 5% CO2. ATP levels were assessed following incubation by interpolation from an ATP standard curve according to the manufacturer’s protocol, as described previously.

The subject of test [1] is CBRs expressed in PC-12 cells. The test is described as follows: [^3H]CP-55,940 competitive binding screen, PC-12 membranes. Set-up: species or system rat. To be noted: 1 μM ligand, 0.2 nM radioligand. Here is the method:
(§1) The assay was conducted as previously detailed. […] All binding reactions were conducted in triplicate, in a final volume of 1 mL, and, following mixing, were incubated for 20 min in a 37 °C water bath to achieve equilibrium. After incubation, reactions were terminated by rapid vacuum filtration through Whatman GF/B glass fiber filters (Brandel; Gaithersburg, MD, USA), followed by three washes of 4 mls of ice-cold filtration buffer (50 mM Tris, pH 7.4, and 0.05% bovine serum albumin). Samples were punched out from filter papers into scintillation vials, to which 4 mls of ScintiverseTM-BDR cocktail scintillation fluid (Fisher Scientific; Hampton, NH, USA) was added. Filters were incubated at room temperature for 24 h in scintillation fluid, vortexed, and radioactivity (measured as DPMs) was quantified via a liquid scintillation spectrophotometer (Tri Carb 2100 TR Liquid Scintillation Analyzer, Packard Instruments, Meriden, CT, USA).

The test system of test [2] is CBRs expressed in PC-3 cells. The test is described as follows: [^3H]CP-55,940 competitive binding screen, PC-3 membranes. The arrangement: species or system human. The following applies: 1 μM ligand, 0.2 nM radioligand. On the procedure: as §1
For test [3], the system named is CBRs expressed in DU-145 cells. The test is described as follows: [^3H]CP-55,940 competitive binding screen, DU-145 membranes. The following applies: 1 μM ligand, 0.2 nM radioligand. Set-up: species or system human. Here is the method:
as §1

Test [4] concerns CBRs expressed in C6-glioma cells. The test is described as follows: [^3H]WIN-55,212-2 competitive binding screen, C6-glioma membranes. To be noted: 1 μM ligand, 1 nM radioligand. Set-up: species or system mouse. On the procedure: as §1
Test [5] concerns CBRs expressed in PC-12 cells. The test is described as follows: [^3H]WIN-55,212-2 competitive binding screen, PC-12 membranes. The arrangement: species or system rat. To be noted: 1 μM ligand, 1 nM radioligand. On the procedure:
as §1

The target of test [6] is non-canonical CBRs expressed in C6-glioma. Briefly: Homologous receptor binding, C6-glioma. To be noted: homologous competition with [^3H]WIN-55,212-2 (1 nM), read-out: affinity (KD). The arrangement: species or system mouse. Here is the method: (§2) All binding reactions were conducted in triplicate, in a final volume of 1 mL, and, following mixing, were incubated for 20 min in a 37 °C water bath to achieve equilibrium. After incubation, reactions were terminated by rapid vacuum filtration and processed for radioactivity, as detailed in Section 4.5.1.
(§3) Curve-fitting and all statistical analyses were performed using GraphPad Prism® v8.0g (GraphPad Software, Inc.; San Diego, CA, USA). For qRT-PCR experiments, a one-way ANOVA, followed by Dunnett’s test as a post hoc test was utilized to compare fold change of PC-3 and DU-145 cancer cells to an arbitrary value of 1, set to the amount of mRNA transcribed from a human normal prostate control. For CBR screening studies, a one-sample t-test was performed to determine differences from 100% (e.g., to quantify compounds producing displacement), followed by a one-way ANOVA and Tukey’s post hoc tests to compare displacement produced by all drugs. […] For LDH release, ATP-dependent cell viability and JC-1 staining assays, drug effects were first analyzed by a one-sample t-test to determine differences from 0 or 100% (vehicle), followed by a one-way ANOVA and Dunnett’s post hoc test to compare all means. […]

Test [7] deals with non-canonical CBRs expressed in HeLa. The test is described as follows: Homologous receptor binding, HeLa. To be noted: homologous competition with [^3H]WIN-55,212-2 (1 nM), read-out: affinity (KD). Set-up: species or system human. On the procedure:
as §2, §3

The target in test [8] is non-canonical CBRs expressed in DU-145. Briefly: Homologous receptor binding, DU-145. The following applies: homologous competition with [^3H]WIN-55,212-2 (1 nM), read-out: affinity (KD). The arrangement: species or system human. Here is the method:
as §2, §3

Test [9] concerns canonical human CB1Rs (CHO-hCB1). The arrangement: method as in PMID 34592231. The following applies: 1 μM ligand, 0.2 nM radioligand, CHO-hCB1 membranes; cited from earlier work.

Results on 2 compounds are retold here after paper PMC8954350, “Non-Canonical Cannabinoid Receptors with Distinct Binding and Signaling Properties in Prostate and Other Cancer Cell Types Mediate Cell Death” (International Journal of Molecular Sciences, 2022).

The Ki is a measure of affinity in units of concentration, obtained from inhibition or displacement. The Kd is the concentration at which binding is half-saturated.

T1 sequence (P21554 whole entry): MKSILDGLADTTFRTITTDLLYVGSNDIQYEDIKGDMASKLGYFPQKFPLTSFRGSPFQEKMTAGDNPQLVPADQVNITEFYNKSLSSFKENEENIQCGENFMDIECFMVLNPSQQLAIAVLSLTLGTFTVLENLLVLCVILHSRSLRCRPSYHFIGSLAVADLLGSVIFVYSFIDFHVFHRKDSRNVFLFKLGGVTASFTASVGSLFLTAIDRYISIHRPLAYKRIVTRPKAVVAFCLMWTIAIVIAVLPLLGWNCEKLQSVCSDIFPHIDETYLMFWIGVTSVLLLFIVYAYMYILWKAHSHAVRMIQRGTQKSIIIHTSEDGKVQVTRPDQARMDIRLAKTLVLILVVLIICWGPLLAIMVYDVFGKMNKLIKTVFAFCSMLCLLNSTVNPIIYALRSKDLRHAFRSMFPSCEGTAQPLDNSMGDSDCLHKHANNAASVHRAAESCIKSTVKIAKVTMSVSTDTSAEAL

At human CB1 receptors, `COc1ccc2c(c1)c(CCN1CCOCC1)c(C)n2C(=O)c1cccc(Cl)c1Cl` [GW-405833] yielded a Ki of 747 nM. Moreover, the LDH release in the test on NPrEC was 46.4 ± 6.4%. Further, the “reduction in ATP-dependent cell viability (ATP levels)” value in the test on DU-145 cells (50 μM) was 68.8 ± 4.95%. In addition, the “concentration-dependent effect on ATP-dependent viability” value in the test with DU-145 cells (10–50 μM) is given as “only produced ATP-dependent reductions in cell viability at the highest 50 μM concentration”.

Consider `Cc1c(C(=O)c2cccc3ccccc23)c2cccc3c2n1[C@H](CN1CCOCC1)CO3` [WIN-55,212-2], for which the “displacement of [^3H]CP-55,940” value is recorded as “neither the non-selective CBR ligand CP-55,940 nor WIN-55,212-2 produced significant displacement” in test [1], “neither the non-selective CBR ligand CP-55,940 nor WIN-55,212-2 produced significant displacement” in test [2], “neither the non-selective CBR ligand CP-55,940 nor WIN-55,212-2 produced significant displacement” in [3] and “produced near or complete displacement” in test [9]. For the same compound, the “displacement of [^3H]WIN-55,212-2 (Figure 1B)” value in test [4] and in test [5] was “significantly displaced” each time. Moreover, the Kd in test [6] worked out at 16.1 ± 2.5 nM; in test [7] it was 7 ± 1.6 nM; in test [8], 4.3 ± 0.89 nM.
